One assay addresses T1, Human PI3K alpha (Homo sapiens, UniProt P42336).
T1 construct: His (N); host or cells: SF9 insect cells (baculovirus)
In words: Human PI3K alpha enzyme assay (HTRF). It is filed as biochemical. The conditions noted are these: read-out: PI3Kalpha IC50. An excerpt: (§1) The catalytic subunits of PI3Ks are cloned into either pDEST8(p110 alpha) or pDEST10(p110beta, p110delta, and p110gamma) as N-terminal His tagged fusion proteins using the Gateway system (Invitrogen, catalog#11804-010 for pDEST8 and 11806-015 for pDEST10). The sequences are verified before recombinant protein expression using the Baculovirus Expression System with Gateway® Technology. The accession numbers for the subunits are as follows: • p110 alpha (GB:U79143) • p110beta (GB: S67334) • p110delta (GB: U86453) • p110gamma (GB: X83368) • The regulatory subunits of PI3Ks are cloned into pDEST8 as un-tagged protein using the Gateway system (Catalog#11804-010). The sequences are verified before recombinant protein expression using the Baculovirus Expression System with Gateway® Technology. The accession numbers for the subunits are as following: • p85 alpha (GB: BC030815) • p101(GB: AB028925) • VPS34 (accession number GB:BC033004) is cloned into pDEST20—Thombin as N-terminal GST tagged fusion proteins using the Gateway system (Invitrogen, catalog#11804-013). The sequences are verified before recombinant protein expression using the Baculovirus Expression System with Gateway® Technology.
(§2) For expression of the p110 complexes, the p85 (MOI of 4) is co-infected with p110 alpha, beta, and delta respectively (1MOI) in SF9 cells and harvested at 60 hours post co-infection. P110 gamma was infected at 1 MOI and harvested at 60 hours post infection.
(§3) For purification, PI3Ks are purified by Ni-NTA Agarose (Qiagen #30250) followed by Mono Q 10/100 GL (Ge Healthcare #17-5167-01). VPS34 is purified by Glutathione Sepharose 4 Fast Flow (GE Healthcare #17-5132-03) followed by HiTrap Q (GE Healthcare #17-1153-01).
1) Human PI3K alpha enzyme assay method
(§4) 0.5 uL compounds in DMSO are added to wells of a 384 well microtitre plate (Corning 3575). At room temperature: 10 ul PI3K reaction buffer (50 mM Hepes, 5 mM DTT, 150 mM NaCl, 10 mM beta-glycerophosphate, 10 mM MgCl2, 0.25 mM sodium cholate and 0.001% CHAPS, pH 7.00) containing ATP (25 uM, Promega) is added followed immediately by 10 ul PI3K reaction buffer containing di-C8 P1(4,5)P2 (3.5 uM, CellSignals) and PI3Kalpha (0.4875 nM, Millennium Protein Sciences Group) and the mixture is incubated with shaking at room temperature for 30 minutes. Then 5 ul PI3K stop mix (50 mM Hepes, 5 mM DTT, 150 mM NaCl, 0.01% Tween-20, 15 mM EDTA and 25 nM biotin-PI(3,4,5)P3 (Echelon) is added to quench the reaction followed immediately by addition of 5 ul HTRF detection mix (50 mM Hepes, 5 mM DTT, 150 mM NaCl, 0.01% Tween-20, 40 mM KF, 1.0 nM GST:GRP-1 PH domain (Millennium Protein Sciences Group), 15 nM Streptavidin-XL (CisBio) and 0.375 nM anti-GST Eu++ antibody (CisBio) at pH 7.00). The plates are then incubated for 1 hour at room temperature with shaking and then read on a BMG PheraStar Plus reader.
(§5) For the assay methods described above, test compound percent inhibition, at various concentrations, is calculated relative to control (DMSO and EDTA) treated samples. Compound concentration versus percent inhibition curves are fitted to generate IC50 values. One skilled in the art will appreciate that the values generated either as percentage inhibition at a single concentration or IC50 values are subject to experimental variation.
Background: In TR-FRET formats the signal depends on donor and acceptor labels being close together.

The target in a further assay is T2, Human PI3K beta (Homo sapiens, UniProt P42338).
T2 construct: His (N); host or cells: SF9 insect cells (baculovirus)
In words: Human PI3K beta enzyme assay (HTRF). It is filed as biochemical. The conditions noted are these: read-out: PI3 Kbeta IC50.
Text: as §1, §2, §3, §4
2) Human PI3K beta, delta and gamma isoforms are tested using the procedure described for PI3K alpha above but with the following changes: PI3K beta (5.25 nM), PI3K delta (0.75 nM) and PI3K gamma (5 nM). All isoforms supplied by Millennium Protein Science Group.
as §5

The results in this text go back to patent US8796268B2, “Heteroaryls and uses thereof” (Millennium Pharmaceuticals, Inc., priority 2010, dated 2014).

Each structure is given as a SMILES string.

T1 sequence (P42336 whole entry): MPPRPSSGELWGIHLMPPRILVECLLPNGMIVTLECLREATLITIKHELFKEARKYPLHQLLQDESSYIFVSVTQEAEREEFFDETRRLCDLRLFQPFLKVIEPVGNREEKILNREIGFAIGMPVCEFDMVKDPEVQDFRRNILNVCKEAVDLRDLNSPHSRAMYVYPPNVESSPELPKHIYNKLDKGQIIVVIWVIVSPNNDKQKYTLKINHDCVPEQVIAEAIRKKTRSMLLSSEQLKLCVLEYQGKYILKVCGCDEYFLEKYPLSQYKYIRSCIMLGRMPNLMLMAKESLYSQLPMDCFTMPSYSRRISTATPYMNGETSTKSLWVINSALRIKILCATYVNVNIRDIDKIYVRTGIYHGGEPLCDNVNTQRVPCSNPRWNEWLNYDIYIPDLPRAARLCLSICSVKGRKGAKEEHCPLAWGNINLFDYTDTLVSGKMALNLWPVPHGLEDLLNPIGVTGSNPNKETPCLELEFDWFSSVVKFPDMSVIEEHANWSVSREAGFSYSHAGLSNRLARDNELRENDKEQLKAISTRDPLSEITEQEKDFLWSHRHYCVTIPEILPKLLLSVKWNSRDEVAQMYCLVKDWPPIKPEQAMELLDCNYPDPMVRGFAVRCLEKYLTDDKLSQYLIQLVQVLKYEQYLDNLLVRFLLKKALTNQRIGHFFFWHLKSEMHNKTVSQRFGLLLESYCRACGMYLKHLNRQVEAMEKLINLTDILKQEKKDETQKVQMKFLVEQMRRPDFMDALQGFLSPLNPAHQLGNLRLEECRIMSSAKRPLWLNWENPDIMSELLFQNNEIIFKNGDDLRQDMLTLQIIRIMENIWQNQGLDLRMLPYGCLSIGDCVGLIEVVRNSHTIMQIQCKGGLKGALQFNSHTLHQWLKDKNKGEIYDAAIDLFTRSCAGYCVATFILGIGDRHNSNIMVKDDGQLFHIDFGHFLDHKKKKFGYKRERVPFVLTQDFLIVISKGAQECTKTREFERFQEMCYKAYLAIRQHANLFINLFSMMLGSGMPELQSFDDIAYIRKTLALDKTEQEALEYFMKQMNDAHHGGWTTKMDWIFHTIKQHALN
T1 sequence (P27986 whole entry partner): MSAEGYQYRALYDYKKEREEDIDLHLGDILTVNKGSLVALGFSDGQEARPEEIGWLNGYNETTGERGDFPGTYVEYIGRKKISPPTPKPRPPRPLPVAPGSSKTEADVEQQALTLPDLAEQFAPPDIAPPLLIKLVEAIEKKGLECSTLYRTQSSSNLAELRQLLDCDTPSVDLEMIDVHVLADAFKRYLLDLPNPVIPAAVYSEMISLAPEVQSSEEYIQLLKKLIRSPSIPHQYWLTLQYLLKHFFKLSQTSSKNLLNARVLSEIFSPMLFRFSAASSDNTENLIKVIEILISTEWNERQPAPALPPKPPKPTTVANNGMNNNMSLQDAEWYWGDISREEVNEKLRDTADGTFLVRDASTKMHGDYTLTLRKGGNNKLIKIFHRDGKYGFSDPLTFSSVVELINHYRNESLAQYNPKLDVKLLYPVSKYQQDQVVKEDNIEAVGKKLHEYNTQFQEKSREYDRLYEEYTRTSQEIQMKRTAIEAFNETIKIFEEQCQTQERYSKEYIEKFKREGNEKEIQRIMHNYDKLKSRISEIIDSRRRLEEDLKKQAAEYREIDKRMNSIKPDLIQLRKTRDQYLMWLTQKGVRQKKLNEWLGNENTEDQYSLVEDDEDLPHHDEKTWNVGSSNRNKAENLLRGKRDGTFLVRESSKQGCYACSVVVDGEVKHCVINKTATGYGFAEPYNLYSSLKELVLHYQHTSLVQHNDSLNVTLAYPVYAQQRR
T2 sequence (P42338 whole entry): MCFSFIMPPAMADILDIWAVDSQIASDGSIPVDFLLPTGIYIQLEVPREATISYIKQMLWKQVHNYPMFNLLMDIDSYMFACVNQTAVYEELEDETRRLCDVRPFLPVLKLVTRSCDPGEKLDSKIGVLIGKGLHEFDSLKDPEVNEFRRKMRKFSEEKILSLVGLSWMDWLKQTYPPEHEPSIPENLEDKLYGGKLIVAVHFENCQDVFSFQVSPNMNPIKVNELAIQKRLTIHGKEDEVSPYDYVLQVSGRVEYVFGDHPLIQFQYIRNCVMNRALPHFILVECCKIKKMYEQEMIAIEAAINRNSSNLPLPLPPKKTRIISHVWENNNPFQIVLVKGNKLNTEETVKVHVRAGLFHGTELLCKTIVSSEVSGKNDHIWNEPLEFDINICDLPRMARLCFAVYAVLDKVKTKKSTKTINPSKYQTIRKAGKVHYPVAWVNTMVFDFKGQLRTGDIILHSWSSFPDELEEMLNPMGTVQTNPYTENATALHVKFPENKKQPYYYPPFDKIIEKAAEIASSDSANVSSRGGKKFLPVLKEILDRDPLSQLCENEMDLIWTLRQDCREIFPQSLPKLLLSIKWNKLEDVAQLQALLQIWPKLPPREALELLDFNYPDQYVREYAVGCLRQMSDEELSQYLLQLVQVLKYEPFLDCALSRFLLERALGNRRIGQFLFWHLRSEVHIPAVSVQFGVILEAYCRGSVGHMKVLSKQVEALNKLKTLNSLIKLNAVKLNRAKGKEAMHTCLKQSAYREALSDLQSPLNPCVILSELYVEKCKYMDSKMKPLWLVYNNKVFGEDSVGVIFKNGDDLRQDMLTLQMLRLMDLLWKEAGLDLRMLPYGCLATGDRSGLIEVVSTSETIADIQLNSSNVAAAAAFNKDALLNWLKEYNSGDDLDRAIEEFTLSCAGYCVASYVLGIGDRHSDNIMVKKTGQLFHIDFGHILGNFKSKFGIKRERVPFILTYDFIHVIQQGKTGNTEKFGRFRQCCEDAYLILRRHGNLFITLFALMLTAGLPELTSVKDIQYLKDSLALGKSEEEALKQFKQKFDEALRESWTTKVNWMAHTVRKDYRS
T2 sequence (P27986 whole entry partner): as the sequence (P27986 whole entry partner) above

The term IC50 denotes the point on the concentration scale where inhibition reaches its midpoint. With `Clc1ccc(Cc2cc(-c3ccncc3)sc2-c2nnc[nH]2)cc1` [Compound 5, 4-[4-(4-chlorobenzyl)-5-(4H-1,2,4-triazol-3-yl)-2-thienyl]pyridine], the IC50 at Human PI3K alpha is > 1000 nM; at Human PI3K beta, < 100 nM.

Take `O[C@@H](c1ccc(Cl)cc1)c1cc(-c2ccnc(F)c2)sc1-c1nnc[nH]1` [Compound 26]: the IC50 on Human PI3K alpha is > 1000 nM; on Human PI3K beta, 100 to 1000 nM.

Take `COC(c1ccc(Cl)cc1)c1cc(-c2ccncc2)sc1-c1nnc[nH]1` (centres unmarked) [Compound 6, 4-[4-[(4-chlorophenyl)(methoxy)methyl]-5-(4H-1,2,4-triazol-3-yl)-2-thienyl]pyridine]: the IC50 is > 1000 nM at Human PI3K alpha and 100 to 1000 nM on Human PI3K beta.

In the case of `Nc1nccc(-c2cc(C(O)c3ccc(Cl)cc3)c(-c3nnc[nH]3)s2)n1` (centres unmarked) [Compound 23], the IC50 on Human PI3K alpha was > 1000 nM; at Human PI3K beta, 100 to 1000 nM.

On to `Clc1ccc(Cc2nc(-c3ccnc4[nH]ccc34)sc2-c2ncn[nH]2)cc1` [Compound 53], for which the IC50 on Human PI3K alpha and on Human PI3K beta was 100 to 1000 nM each time.

For the compound `OC(c1ccc(Cl)cc1)c1cc(-c2ccncc2F)sc1-c1nnc[nH]1` (centres unmarked) [Compound 16], the IC50 at Human PI3K alpha was > 1000 nM; at Human PI3K beta, < 100 nM.

Turning to `Cc1nn2ccc(CN3CCNCC3)cc2c1-c1nc(Cc2ccc(Cl)cc2)c(-c2nnc[nH]2)s1` [Compound 72, 3-[4-(4-chlorobenzyl)-5-(4H-1,2,4-triazol-3-yl)-1,3-thiazol-2-yl]-2-methyl-5-(piperazin-1-ylmethyl)pyrazolo[1,5-a]pyridine], the IC50 on Human PI3K alpha and at Human PI3K beta was 100 to 1000 nM each time.

Turning to `Fc1cnccc1-c1nc(Cc2ccc(Cl)cc2)c(-c2nc[nH]n2)s1` [Compound 78], the concentration for half-maximal inhibition (IC50) on Human PI3K alpha and on Human PI3K beta was > 1000 nM throughout.

`CC(=O)Nc1cc(-c2nc(Cc3ccc(Cl)cc3)c(-c3ncn[nH]3)s2)ccn1` [Compound 56, N-{4-[4-(4-chlorobenzyl)-5-(4H-1,2,4-triazol-3-yl)-1,3-thiazol-2-yl]pyridin-2-yl}acetamide]: the IC50 on Human PI3K alpha and on Human PI3K beta was 100 to 1000 nM in each case.

Regarding `N#Cc1cc(-c2cc([C@H](O)c3ccc(Cl)cc3)c(-c3nnc[nH]3)s2)ccn1` [Compound 3], the values for the IC50 on Human PI3K alpha and on Human PI3K beta were > 1000 nM and < 100 nM, respectively.

`Cc1nn2ccc(CNCCNC(=O)OC(C)(C)C)cc2c1-c1nc(Cc2ccc(Cl)cc2)c(-c2nnc[nH]2)s1` [Compound 82]: the IC50 at Human PI3K alpha and at Human PI3K beta was 100 to 1000 nM in each case.

Regarding `Cc1cc(-c2nc(Cc3ccc(Cl)cc3)c(-c3nc[nH]n3)s2)ccn1` [Compound 18, 4-(4-Chlorobenzyl)-2-(2-methylpyridin-4-yl)-5-(4H-1,2,4-triazol-3-yl)thiazole], the half-maximal inhibitory concentration (IC50) on Human PI3K alpha and on Human PI3K beta was > 1000 nM throughout.

Regarding `OC(c1ccc(Cl)cc1)c1cc(-c2ccnc3ccccc23)sc1-c1nnc[nH]1` (centres unmarked) [Compound 42], the 50% inhibitory concentration (IC50) on Human PI3K alpha and on Human PI3K beta was 100 to 1000 nM throughout.

As for `c1ccc2cc(Cc3nc(-c4ccncc4)sc3-c3nnc[nH]3)ccc2c1` [Compound 87], the IC50 is > 1000 nM at Human PI3K alpha and < 100 nM on Human PI3K beta.

For the compound `O=C(O)c1sc(-c2ccncc2)nc1Cc1ccc(Cl)cc1` [Compound 80, 4-(4-chlorobenzyl)-2-(pyridin-4-yl)thiazole-5-carboxylic acid], the IC50 on Human PI3K alpha is > 1000 nM; on Human PI3K beta it was < 100 nM.

`O[C@H](c1ccc(Cl)cc1)c1nc(-c2ccncc2)sc1-c1nnc[nH]1` (single isomer, unassigned) [Compound 19, (4-chlorophenyl)[2-pyridin-4-yl-5-(1H-1,2,4-triazol-3-yl)-1,3-thiazol-4-yl]methanol]: the IC50 at Human PI3K alpha is > 1000 nM; at Human PI3K beta it was < 100 nM.

With `CC(=O)Nc1cc(-c2nc(C(O)c3ccc(Cl)cc3)c(-c3ncc[nH]3)s2)ccn1` (centres unmarked) [Compound 60, N-{4-[4-[(4-chlorophenyl)(hydroxy)methyl]-5-(1H-imidazol-2-yl)-1,3-thiazol-2-yl]pyridin-2-yl}acetamide], the IC50 at Human PI3K alpha was > 1000 nM; at Human PI3K beta it was 100 to 1000 nM.

Take `Clc1ccc(Cc2nc(-c3ccncc3)sc2-c2nnc[nH]2)cc1Cl` [Compound 7]: the concentration for half-maximal inhibition (IC50) on Human PI3K alpha is > 1000 nM; on Human PI3K beta, < 100 nM.

For the compound `OC(c1ccc(Cl)cc1)c1cc(-c2ccnc(-n3ccnc3)c2)sc1-c1nnc[nH]1` (centres unmarked) [Compound 28], the IC50 on Human PI3K alpha and at Human PI3K beta was 100 to 1000 nM in each case.

Regarding `O[C@H](c1ccc(Cl)cc1)c1cc(-c2ccnc(F)c2)sc1-c1nnc[nH]1` [Compound 45], the results for the IC50 at Human PI3K alpha and at Human PI3K beta were > 1000 nM and < 100 nM, respectively.

Regarding `Cc1cc(-c2cc([C@@H](O)c3ccc(Cl)cc3)c(-c3nnc[nH]3)s2)ccn1` (single isomer, unassigned) [Compound 69], the IC50 on Human PI3K alpha was > 1000 nM; at Human PI3K beta, 100 to 1000 nM.

As to `Nc1cc(-c2nc(Cc3ccc(Cl)cc3)c(-c3ncn[nH]3)s2)ccn1` [Compound 27], the 50% inhibitory concentration (IC50) at Human PI3K alpha was > 1000 nM; at Human PI3K beta it was 100 to 1000 nM.

Regarding `CC(=O)Nc1cc(-c2nc(Cc3ccccc3Cl)c(-c3ncc[nH]3)s2)ccn1` [Compound 67], the IC50 at Human PI3K alpha is 100 to 1000 nM; on Human PI3K beta it was > 1000 nM.

With `COc1ccc(CNCc2ccn3nc(C)c(-c4nc(Cc5ccc(Cl)cc5)c(-c5nnc[nH]5)s4)c3c2)c(OC)c1` [Compound 20], the values for the IC50 at Human PI3K alpha and on Human PI3K beta were 100 to 1000 nM and < 100 nM, respectively.

In the case of `CN(C)[C@H](c1ccc(Cl)cc1)c1cc(-c2ccncc2)sc1-c1nnc[nH]1` [Compound 44], the IC50 on Human PI3K alpha is > 1000 nM; on Human PI3K beta it was < 100 nM.

As for `CC(=O)Nc1cc(-c2cc(C(O)c3ccc(Cl)cc3)c(-c3nnc[nH]3)s2)ccn1` (centres unmarked) [Compound 41], the IC50 on Human PI3K alpha and at Human PI3K beta was < 100 nM each time.

For the compound `Cc1cc(-c2cc([C@H](O)c3ccc(Cl)cc3)c(-c3nnc[nH]3)s2)ccn1` [Compound 43], the IC50 is > 1000 nM at Human PI3K alpha and < 100 nM on Human PI3K beta.

With `Cc1nn2ccc(CN3CCC(N)CC3)cc2c1-c1nc(Cc2ccc(Cl)cc2)c(-c2nnc[nH]2)s1` [Compound 61], the IC50 on Human PI3K alpha and on Human PI3K beta was 100 to 1000 nM each time.

With `CNc1cc(-c2nc(Cc3ccc(Cl)cc3)c(-c3nnc[nH]3)s2)ccn1` [Compound 63], the IC50 on Human PI3K alpha and at Human PI3K beta was > 1000 nM throughout.

For the compound `Clc1ccc(Cc2nc(-c3ccnnc3)sc2-c2nnc[nH]2)cc1` [Compound 39], the IC50 is > 1000 nM on Human PI3K alpha and 100 to 1000 nM at Human PI3K beta.

With `N#Cc1cc(-c2cc(C(O)c3ccc(Cl)cc3)c(-c3nnc[nH]3)s2)ccn1` (centres unmarked) [Compound 81, 4-(4-((4-chlorophenyl)(hydroxy)methyl)-5-(4H-1,2,4-triazol-3-yl)thiophen-2-yl)picolinonitrile], the IC50 is > 1000 nM on Human PI3K alpha and < 100 nM on Human PI3K beta.

With `Clc1ccc(Cc2nc(-c3ccnc(Cl)c3)sc2-c2nnc[nH]2)cc1` [Compound 47, 4-(4-chlorobenzyl)-2-(2-chloropyridin-4-yl)-5-(4H-1,2,4-triazol-3-yl)thiazole], the IC50 on Human PI3K alpha is > 1000 nM; on Human PI3K beta, 100 to 1000 nM.

As to `O[C@H](c1ccc(Cl)cc1)c1cc(-c2ccncc2)sc1-c1nnc[nH]1` [Compound 77], the IC50 is > 1000 nM on Human PI3K alpha and < 100 nM on Human PI3K beta.

With `CN(C)[C@@H](c1ccc(Cl)cc1)c1cc(-c2ccncc2)sc1-c1nnc[nH]1` [Compound 65], the IC50 at Human PI3K alpha was > 1000 nM; at Human PI3K beta, < 100 nM.
